Laboratory results as given in patent US20190117637A1 (priority 2016, published 2019).

Columns and labels:
rats [1] = details: rat, in vivo
rats [2] = details: rat; pretreatment quetiapine 10 mg/kg i.p.; heroin 0.032 mg/kg/infusion i.v., five lever presses per infusion; FIG. 2

Row | Structure (SMILES) | average tail flick latency (rats [1]) | median tail flick latency (rats [1]) [s] | self-administration (reinforcing effect) of heroin (rats [2])
1 | COc1ccc2c3c1O[C@H]1C(=O)CC[C@@]4(O)[C@@H](C2)N(C)CC[C@]314 [oxycodone] | about 7.3 seconds | ~5.8 | 
2 | OCCOCCN1CCN(C2=Nc3ccccc3Sc3ccccc32)CC1 [quetiapine] |  |  | decreased
